For the assay, the system named is M. tuberculosis H37Rv growth inhibition, 7H9 media. The assay can be described thus: M. tuberculosis growth inhibition, HTS (AID 449762).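 On all read-outs here: bacterial growth assessed after seven days of incubation.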 The note with it: for IC90: measured here: IC90 growth inhibition.

Results filed as inconclusive are left out. Bounds are passed on as bounds.

The term IC50 denotes the concentration that gives 50% inhibition. As a reminder, the IC90 is the concentration at which the effect reaches the 90% level. Read a high IC90 as a need for much substance. For `N[C@@H](CCl)C(=O)O`, the IC50 was 39.4 µM and the IC90 amounted to 58.9 µM.
Consider `O=C(OCn1nnc2ccccc2c1=O)C1CCCCC1`, for which the IC50 was 3.56 µM and the IC90 worked out at 7.16 µM.
The corresponding values for `COc1ccc(C[C@H](N)C(=O)N[C@H]2[C@@H](O)[C@H](n3cnc4c(N(C)C)ncnc43)O[C@@H]2CO)cc1` are 3.14 µM and 3.54 µM.
The corresponding values for `O=[N+]([O-])c1ccc(CN2CCN(c3ccc(Cl)cc3)CC2)o1` are < 0.2 µM and < 0.2 µM.
The corresponding values for `CN(C)c1ccc(N=Nc2ccccc2C(=O)OCC(=O)NCC2CCCCC2)cc1` are 11 µM and 13.1 µM.
As to `c1ccc(CSc2ccc(-c3ccccn3)nn2)cc1`, the IC50 is 23.4 µM and the IC90 is 26.9 µM.
For `CCCCCCC[N+](CC)(CC)CCCCc1ccc(Cl)cc1`, in that order: 24.7 µM and 27.8 µM.
For the compound `Clc1ccc(Nc2ccc(-n3ccnc3)nn2)cc1Cl`, the IC50 is 18.9 µM and the IC90 stood at 25.3 µM.
The corresponding values for `CC1CCC(C(C)C)C(OC(=O)Cn2c(-c3ccc(F)cc3)[n+](C)c3ccccc32)C1` (stereo unspecified) are 9.08 µM and 13 µM.
For `Cn1cnnc1SCc1ccc(-c2ccc(Br)cc2)o1`, in that order: 85.1 µM and > 100 µM.
The corresponding values for `CC(C)c1ccc(N2C(=O)NC(=O)/C(=C\C=C\c3ccco3)C2=O)cc1` are 22.1 µM and 35.7 µM.
On to `COC(=O)c1cc(=O)n(-c2ccc(F)cc2)c(=Nc2ccc(F)cc2)s1`, for which the IC50 was < 0.2 µM and the IC90 worked out at 1.86 µM.
For `OC(CNCC(c1ccc(Cl)cc1Cl)c1c[nH]c2ccccc12)c1ccccc1` (stereo unspecified), in that order: 16.9 µM and 23.4 µM.
For `CC(C)CCNC(=O)C(c1ccc(O)cc1)N(C(=O)C1COc2ccccc2O1)c1cccc(O)c1` (stereo unspecified), in that order: 71 µM and > 100 µM.
The corresponding values for `CC1Cc2ccccc2N1C(=S)NC(=O)c1ccc(Cl)cc1Cl` (stereo unspecified) are 7.13 µM and > 100 µM.
With `CCC(C)NC(=O)c1cn(CC)c2cc(N3CCN(C(=O)c4ccco4)CC3)c(F)cc2c1=O` (stereo unspecified), the IC50 is 9.33 µM and the IC90 was 30.9 µM.
The corresponding values for `COc1ccc2c(c1)[C@@H]1[C@H](CO2)[C@H](c2ccccc2)[C@]2(C)C(=O)Nc3ccc(C)cc3C(=O)N12` are 49.5 µM and > 100 µM.
The corresponding values for `CCOC(=O)c1c(/N=C/N(C)C)sc(/C=N/Nc2ccccc2)c1-c1ccccc1Cl` are 81.8 µM and > 100 µM.
Consider `CCOC(=O)c1sc2ncnc(NCC(c3cccs3)N(C)C)c2c1C` (stereo unspecified), for which the IC50 was 34.9 µM and the IC90 stood at 71.6 µM.
The corresponding values for `O=c1[nH]c(CN2CC=C(c3ccccc3)CC2)nc2cc(C(F)(F)F)ccc12` are 69.4 µM and 86 µM.
In the case of `CC(c1nc2ccccc2c(=O)[nH]1)N(C)CCOc1ccc(Cl)cc1` (stereo unspecified), the IC50 is 40.4 µM and the IC90 came out at 51.7 µM.
As for `CCOC(=O)C(C)Oc1ccc(NC(=O)C(Cl)(Cl)Cl)cc1` (stereo unspecified), the IC50 was 2.38 µM and the IC90 is 5.08 µM.
As for `S=C(NCc1ccc(Cl)cc1)NC12CC3CC(CC(C3)C1)C2`, the half-inhibitory concentration (IC50) is 0.7 µM and the IC90 is 11.6 µM.
The corresponding values for `CC(C)(C)c1ccc(Cn2c(=N)n(CC(O)c3ccco3)c3ccccc32)cc1` (stereo unspecified) are 17.6 µM and 22.2 µM.
The corresponding values for `S=C1SCN(Cc2ccco2)CN1Cc1ccco1` are 32.7 µM and 52.3 µM.
Take `CCc1ccc(NC2=NCC(c3ccccc3)S2)cc1` (stereo unspecified): the IC50 was 3.03 µM and the IC90 is > 100 µM.
The corresponding values for `CCCCOC(=O)CCN1C(=O)/C(=C2\SC(=S)N(CCC(=O)OCCCC)C2=O)SC1=S` are 2.98 µM and 6.96 µM.
The corresponding values for `CCCCOC(=O)c1c(C)oc2ccc(NS(=O)(=O)c3ccc4c5c(cccc35)C(=O)N4)cc12` are 78.7 µM and > 100 µM.
Regarding `COc1cc2c(cc1OC)C1(Nc3c-2c(-c2ccccc2)nn3-c2ccccc2)C(=O)Nc2ccccc21` (stereo unspecified), the IC50 was 90.5 µM and the IC90 is > 100 µM.
Take `COc1cccc2c1C(=O)c1c(O)c3c(c(O)c1C2=O)C[C@@](O)(C(=O)CO)C[C@@H]3O[C@H]1C[C@H](N)[C@@H](O)[C@H](C)O1`: the IC50 is 2.64 µM and the IC90 was found to be 4.86 µM.
For `O=C(NCCN1CCN(c2cccc(Cl)c2)CC1)c1ccc(CSc2nc3ccncc3[nH]2)cc1`, in that order: 23.2 µM and 35.3 µM.
For `C=CCNCC(=O)N1N=C(c2ccc3ccccc3c2)CC1c1ccc(OC)cc1` (stereo unspecified), in that order: 21.8 µM and 24.3 µM.
The corresponding values for `O=c1cc(N=Nc2ccc(Cl)cc2)[nH]c(=O)[nH]1` are 42 µM and > 100 µM.
As for `CCOP(=O)(OCC)/C(=C/N1CCCCC1)NC(=O)c1ccccc1`, the IC50 was 81.4 µM and the IC90 is > 100 µM.
For `CCOc1ccc(NC(=S)Nc2ccc(C)c([N+](=O)[O-])c2)cc1`, in that order: 45 µM and > 100 µM.
The corresponding values for `CCCC(NCC(O)COc1ccc(-c2ccccc2)cc1)c1ccccc1` (stereo unspecified) are 11.5 µM and 14.9 µM.
Turning to `COc1ccc(NC(=O)/C(Cl)=C(/Cl)S(=O)Cc2ccc(C)cc2)cn1` (stereo unspecified), the IC50 is < 0.2 µM and the IC90 is < 0.2 µM.
On to `c1ccc(-c2ccc(C(c3ccccc3)n3ccnc3)cc2)cc1` (stereo unspecified), for which the IC50 is 19.7 µM and the IC90 is 31.7 µM.
The corresponding values for `COc1ccc(NC(=O)CN(C)CC(=O)Nc2sc3c(c2C(N)=O)CCC3)cc1` are 49.9 µM and 98 µM.
`CCOc1ncccc1C(=O)OCC(=O)N1CCc2ccccc21`: the IC50 is 6.15 µM and the IC90 stood at 15.4 µM.
For `O=C(Nc1nc2c(s1)CCCC2)c1cc(-c2ccc3c(c2)OCO3)nc2ccccc12`, the IC50 was 66 µM and the IC90 is > 100 µM.
For `CNC[C@H](Cc1cccc2ccccc12)NC[C@H](CCSC)NCC1CCC(C(C)(C)C)CC1` (stereo partly specified), in that order: 22.4 µM and 24.2 µM.
`CC1=CC(=O)c2c(O)ccc(O)c2C1=O`: the IC50 is 8.02 µM and the IC90 is 12.2 µM.
Regarding `COc1cccc2c1C(CO)N1C(C#N)C3CC(C(=O)O)C(C1C2)N3C` (stereo unspecified), the IC50 was 2.69 µM and the IC90 turned out to be 2.98 µM.
In the case of `CN(/N=C/c1cc(Br)cc(Br)c1O)c1cccc(C(F)(F)F)n1`, the IC50 is 3.93 µM and the IC90 turned out to be 7.43 µM.
For `O=C(CN1CCN(Cc2ccc(Cl)cc2)CC1)N/N=C/C=C/c1ccccc1[N+](=O)[O-]`, in that order: 26.8 µM and 37.6 µM.
For `CCc1ccc(N=C2NC(=O)/C(=C/c3cc(OC)c(O)c(OC)c3)S2)cc1`, in that order: 33.2 µM and > 100 µM.
For `Cc1ccc2c(c1)c1ncnc(N3CCc4ccccc4C3)c1n2C`, in that order: 81.1 µM and > 100 µM.
As to `COc1ccc(C(=O)OCCNC(=O)c2c(Cl)nc3ccccn23)cc1`, the IC50 is 10 µM and the IC90 was 16.1 µM.
On to `Cc1ccc(C)c(N/C(N)=N/c2nc(C)cc(C)n2)c1`, for which the IC50 is 5.87 µM and the IC90 is 6.72 µM.
The corresponding values for `COC(=O)c1ccc(Cn2cc(C(F)(F)F)cc([N+](=O)[O-])c2=O)cc1` are < 0.2 µM and 23.7 µM.
The corresponding values for `Cc1nonc1OCCNCCNc1ccc([N+](=O)[O-])c2cccnc12` are 6.68 µM and 13.9 µM.
`CC1=NN(C(N)=S)C(=O)C1N=Nc1ccc(C)c(Br)c1` (stereo unspecified): the IC50 was 11.5 µM and the IC90 was found to be 19.1 µM.
Consider `CN(c1ccccc1)S(=O)(=O)c1cccc(C(=O)NCc2ccccc2CN2CCCC2)c1`, for which the IC50 was 48.8 µM and the IC90 is 55.4 µM.
The corresponding values for `Nc1ccc(Oc2ccc(F)cc2)nc1` are 60.6 µM and 90.1 µM.
The corresponding values for `COc1ccc(C)cc1Nc1n[n+](-c2ccccc2)c(-c2c(Cl)cccc2Cl)s1` are 19.6 µM and 25.9 µM.
The corresponding values for `CCn1nc(NC(=O)c2ccncc2)c2cc3cc(C)ccc3nc21` are 4.47 µM and 47.3 µM.
In the case of `O=C(CCc1ccc(Oc2cc([N+](=O)[O-])cc([N+](=O)[O-])c2)cc1)N1CCCCCC1`, the IC50 is 4.2 µM and the IC90 is 27 µM.
The corresponding values for `CC(/C=N/NC(=O)c1cc(-c2ccc3ccccc3c2)n[nH]1)=C\c1ccco1` are 29 µM and 51.2 µM.
For `O=C(CSc1n[nH]c(-c2ccccc2)n1)Nc1ccc(Br)cn1`, the IC90 was > 100 µM.
With `Cc1ccc2nc(=O)c(NNc3ccccc3)cnc2c1`, the IC50 is 16.5 µM and the IC90 is > 100 µM.
For `N#C/C(N=Nc1ccccc1O)=N\Nc1ccccc1O`, in that order: < 0.2 µM and 1.65 µM.
The corresponding values for `C[n+]1c(-c2ccccc2)cc(CCCCc2cc(-c3ccccc3)[n+](C)c(-c3ccccc3)c2)cc1-c1ccccc1` are 17.3 µM and 21.7 µM.
The corresponding values for `CC(C)COCc1ccc(O)c2ncccc12` are 1.64 µM and 2.35 µM.
As to `C[CH2][Hg][S]c1ccccc1C(=O)O`, the IC50 is 0.34 µM and the IC90 came out at 0.81 µM.
For `Oc1[nH]c2ccccc2c1N=NC(=S)N1CCOCC1`, in that order: 12.3 µM and 13.9 µM.
The corresponding values for `CSc1nsc(/C=C/Nc2ccc(O)cc2C)c1C#N` are 27 µM and 43 µM.
For `COc1cc(NC(=O)c2cccs2)c(C(=O)OCC(=O)NCc2ccco2)cc1OC`, in that order: 23.9 µM and > 100 µM.
On to `O=C(Nc1ccc(C2=NCCN2)cc1)c1ccc(Cl)c(C(=O)Nc2ccc(C3=NCCN3)cc2)c1`, for which the IC50 is 11.3 µM and the IC90 turned out to be 12.3 µM.
For `COCc1nnc(NC(=O)C2CC(=O)N(c3ccc(C)c(Cl)c3)C2)s1` (stereo unspecified), in that order: 51.1 µM and > 100 µM.
The corresponding values for `C(=C\c1nccc2c1[nH]c1ccccc12)/c1ccccc1` are 28.5 µM and 48.2 µM.

(Values after PubChem BioAssay AID449762 (Southern Research Specialized Biocontainment Screening …, 2010).)
